A short description of data set [1]: Solubility of NIR dye to resin solution. The following applies: stirred two hours; for Solubility evaluation, Polyimide resin: 12.5 mass % C3450 in cyclohexanone:NMP=1:1, 50° C.; for Solubility evaluation, Polyester resin: 12.5 mass % OKP850 in cyclohexanone:NMP=1:1, 50° C.; for Solubility evaluation, Polyethersulfone resin: 12.5 mass % PES4800 in cyclohexanone:NMP=1:1, 50° C. The format is physicochemical. The protocol:
Results are illustrated in Table 8 together with the kinds of the used dyes. Note that the temperature of the resin solution in the solubility test was set to 50° C., the NIR dye was put into the resin solution, the resultant resin solution was stirred for two hours, and the presence/absence of occurrence of the dissolution was observed visually. Evaluation criteria of the solubility are as follows.
A: Solubility of 9 mass % or more
B: Solubility of 7 mass % or more and less than 9 mass %
C: Solubility of 5 mass % or more and less than 7 mass %
D: Solubility of 3 mass % or more and less than 5 mass %
E: Solubility of 1 mass % or more and less than 3 mass %
F: Solubility of less than 1 mass %

Data set [2] is described as follows: Absorption characteristic of NIR dye in dichloromethane. Format: physicochemical. An excerpt:
The obtained NIR dyes were each dissolved in dichloromethane, and an ultraviolet-visible spectrophotometer (manufactured by Hitachi High Technologies Co., Ltd., U-4100 type) was used to measure each spectral transmittance curve, from which a maximum absorption wavelength λmax, a wavelength λ80 at which the transmittance becomes 80% on a shorter wavelength side than the maximum absorption wavelength with the transmittance at the maximum absorption wavelength set to 10%, a difference between the maximum absorption wavelength λmax and the wavelength λ80 (λmax−λ80), a maximum absorption constant εA in light of a wavelength range of 430 to 550 nm, a maximum absorption constant εB in light of a wavelength range of 670 to 730 nm, and a ratio of these (εB/εA) were calculated. Note that the U-4100 type was used for the measurement of spectral transmittance curves in each of the following examples.

Each structure is given as a SMILES string.

The values below come from patent publication US11693163B2, “Optical filter and imaging device” (AGC Inc., priority 2015, dated 2023).

Take `CC(C)OC(=O)Nc1cc2c(cc1C1=C([O-])C(=c3cc4c(cc3NC(=O)OC(C)C)=[N+](C(C)C)C(C)C4(C)C)C1=O)C(C)(C)C(C)N2C(C)C` (stereo not drawn) [A1-8]: in data set [1], the “Solubility evaluation, Polyimide resin” value is “A (9 mass % or more)”; the “Solubility evaluation, Polyester resin” value is reported as “A (9 mass % or more)”; the “Solubility evaluation, Polyethersulfone resin” value was “A (9 mass % or more)”. For the same molecule, in data set [2], the “εA (maximum absorption constant, 430 to 550 nm)” value was found to be 0.017; the “εB (maximum absorption constant, 670 to 730 nm)” value turned out to be 1; the εB/εA was found to be 60.2; the “λ80 (wavelength of 80% transmittance, shorter side of λmax, transmittance at λmax set to 10%)” value worked out at 647 nm. In data set [2], the “λmax (maximum absorption wavelength)” value was found to be 697 nm and the λmax-λ80 came to 50 nm.
Turning to `COC(=O)Nc1cc2c(cc1C1=C([O-])C(=c3cc4c(cc3NC(=O)OC)=[N+](C)C(C)C4(C)C)C1=O)C(C)(C)C(C)N2C` (stereo not drawn) [A1-1], in data set [1], the “Solubility evaluation, Polyimide resin” value was “E (1 mass % or more and less than 3 mass %)”; the “Solubility evaluation, Polyester resin” value was “D (3 mass % or more and less than 5 mass %)”; the “Solubility evaluation, Polyethersulfone resin” value is “E (1 mass % or more and less than 3 mass %)”. Further, in data set [2], the “εA (maximum absorption constant, 430 to 550 nm)” value came out at 0.014; the “εB (maximum absorption constant, 670 to 730 nm)” value turned out to be 1; the εB/εA is 71.1; the “λ80 (wavelength of 80% transmittance, shorter side of λmax, transmittance at λmax set to 10%)” value was 632 nm. For the same molecule, in data set [2], the “λmax (maximum absorption wavelength)” value turned out to be 691 nm and the λmax-λ80 is recorded as 59 nm.
